Results taken from ChEMBL document CHEMBL2169791, “Strategies for the design of HIV-1 non-nucleoside reverse transcriptase inhibitors: lessons from the development of seven representative paradigms” (J Med Chem, 2012).
Converted amounts (≈) assume the structure as drawn. One block for each compound: values may come before it.

Assays:
[1] = Half life in HIV1-infected patient; format: ADME, organism-based; settings: human, in vivo
[2] = system: Human immunodeficiency virus 1; assay: Antiviral activity against HIV1 infected in MT4 cells; format: functional, organism-based; settings: Human immunodeficiency virus 1, MT4
[3] = system: Human immunodeficiency virus 1; assay: Antiviral activity against HIV1 harboring reverse transcriptase Y188L mutant; format: functional, organism-based
[4] = system: Human immunodeficiency virus 1; assay: Antiviral activity against HIV1 harboring reverse transcriptase K103N mutant; format: functional, organism-based
[5] = system: Human immunodeficiency virus 1; assay: Antiviral activity against wild type HIV1; format: functional, organism-based
[6] = system: Human immunodeficiency virus 1; assay: Antiviral activity against HIV1 harboring reverse transcriptase L100I/K103N mutant; format: functional, organism-based
[7] = system: Human immunodeficiency virus 1; assay: Antiviral activity against HIV1 harboring reverse transcriptase Y181C mutant; format: functional, organism-based
[8] = system: Human immunodeficiency virus 1; assay: Antiviral activity against HIV1 harboring reverse transcriptase K103N/Y181C mutant; format: functional, organism-based
[9] = system: Human immunodeficiency virus 1; assay: Antiviral activity against HIV1 harboring reverse transcriptase L100I mutant; format: functional, organism-based
[10] = system: Human immunodeficiency virus 1; assay: Antiviral activity against HIV1 3B infected in MT4 cells; format: functional, organism-based; settings: Human immunodeficiency virus 1, 3B
[11] = Selectivity index, ratio of cytotoxic concentration for human MT4 cells to IC50 for HIV1 3B; format: toxicity, cell-based; settings: read-out: Selectivity Index
[12] = system: Human immunodeficiency virus 1; assay: Ratio of nevirapine EC50 to compound EC50 for HIV1; format: functional
[13] = Half life in plasma; format: ADME, cell-free
[14] = system: Human immunodeficiency virus 1; assay: Antiviral activity against HIV1 infected in human assessed as log reduction in viral load at 800 mg administered QD for 7 days measured on day 8 relative to placebo-control; format: functional
[15] = system: Human immunodeficiency virus 1; assay: Antiviral activity against HIV1 infected in human assessed as log reduction in viral load at 500 mg administered QD for 7 days measured on day 8 relative to placebo-control; format: functional
[16] = system: Human immunodeficiency virus 1; assay: Antiviral activity against HIV1 infected in human assessed as log reduction in viral load at 750 mg administered QD for 7 days measured on day 8 relative to placebo-control; format: functional
[17] = system: Human immunodeficiency virus 1; assay: Antiviral activity against HIV1 3B infected in MT4 cells assessed as inhibition of virus-induced cytopathic effect after 5 days by MTT assay; format: functional, organism-based; settings: Human immunodeficiency virus 1, 3B, MT4, 120 h
[18] = system: Human immunodeficiency virus 1; assay: Antiviral activity against HIV1 infected in human assessed as viral copies at 25 to 150 mg; format: functional
[19] = system: Human immunodeficiency virus 1; assay: Antiviral activity against HIV1 infected in human assessed as log reduction in viral load at 25 to 150 mg administered QD for 7 days measured on day 8 relative to placebo-control; format: functional
[20] = Half life in HIV-infected patient plasma; format: ADME, organism-based; settings: human

SMILES: Cc1cc(C#N)cc(C)c1Oc1nc(Nc2ccc(C#N)cc2)ncc1Br
IC50 [3]: 5.9 nM | IC50 [4]: 1.4 nM | IC50 [5]: 1.4 nM | IC50 [6]: 49 nM | IC50 [7]: 22 nM | IC50 [8]: 25 nM | IC50 [9]: 6.6 nM

SMILES: CC(C)=CCN1Cc2cccc3[nH]c(=S)n(c23)C[C@@H]1C
IC50 [10]: 28 nM | selectivity ratio [11]: 31100

SMILES: Cc1cc(C#N)cc(C)c1Oc1ccnc(Nc2ccc(C#N)cc2)n1
IC50 [3]: 19 nM | IC50 [4]: 2.7 nM | IC50 [5]: 1.1 nM | IC50 [6]: 798 nM | IC50 [7]: 37 nM | IC50 [8]: 94 nM | IC50 [9]: 73 nM

SMILES: Cc1cc(C#N)cc(C)c1Oc1nc(Nc2ccc(C#N)cc2)nc(N)c1Br [ETRAVIRINE]
IC50 [5]: < 10 nM | IC50 [6]: 19 nM | half-life [13]: 30 h | IC50 [8]: 4.3 nM

SMILES: CO[P@](=O)(c1cc(C)cc(/C=C/C#N)c1)c1c(C(N)=O)[nH]c2ccc(Cl)cc12 [FOSDEVIRINE]
FC [14]: 2.1

SMILES: CCc1nn(CCO)c(CC)c1Oc1cc(C#N)cc(C#N)c1 [LERSIVIRINE]
FC [15]: 1.9 | FC [16]: 2

SMILES: CC(=O)c1ccc(C)cc1NC(C(N)=O)c1c(Cl)cccc1Cl (centres undefined) [LOVIRIDE]
IC50 [17]: 13 nM

SMILES: Cc1cn([C@H]2C[C@H](N=[N+]=[N-])[C@@H](CO)O2)c(=O)[nH]c1=O [ZIDOVUDINE]
IC50 [10]: 1.5 nM | selectivity ratio [11]: 6200

Second part, led by results:

half-life [1]: 11 h
SMILES: O=C(CSc1nnc(Br)n1-c1ccc(C2CC2)c2ccccc12)Nc1ccc(C(=O)[O-])cc1Cl.[K+]

IC50 [2]: 0.5 nM
SMILES: Cc1cc(S(N)(=O)=O)ccc1NC(=O)COc1ccc(Cl)cc1C(=O)c1cc(F)cc(C(F)(F)F)c1

IC50 [2]: 10 µg/mL
SMILES: CCN(CC)CCOc1ccc(NC(=O)COc2ccccc2C(=O)c2ccc(OC)cc2)cc1

EC50 [5]: 0.00026 µg/mL (≈ 0.589 nM)
SMILES: CCN1c2ncc(CCOc3cc[n+]([O-])c4ccccc34)cc2C(=O)N(C)c2cccnc21 [BILR 355]
Ratio EC50 [12]: >10

half-life [20]: 48 h
SMILES: Cc1cc(/C=C/C#N)cc(C)c1Nc1ccnc(Nc2ccc(C#N)cc2)n1 [RILPIVIRINE]
Activity [18]: <50 mL⁻¹ | FC [19]: 1.199
